# “And” between values parts separate entries of the source, which are not always exact repeats. Equal values may be shown once. Read-outs that look alike come from different tables or passages of the source.
# Key:
# [1] = biological target: DIPY binding site of TSPO (Homo sapiens, UniProt P30536); assay: Frontal displacement on MMAC-
# TSPO [2] = details: read-out: Reported Ki using marker ligand PK; cited from earlier work
# [3] = biological target: Translocator protein (TSPO) (Homo sapiens, UniProt P30536); assay: Frontal affinity chromatography; assay type: binding; details: for Breakthrough time: MMAC (U87MG), ammonium acetate [10 mM
# TSPO [4] = biological target: T1, TSPO (Homo sapiens, UniProt P30536); assay: Single displacement study for ranking TSPO ligands on MMAC-; assay type: binding; details: MMAC-(U87MG)
# [5] = biological target: sulfonylurea receptor (SUR); assay: Frontal affinity chromatography on MMAC-; assay type: binding, human; details: read-out: Kd on MMAC-(U87MG); SUR ligand; ammonium acetate [10 mM, pH 7.4]
# SUR [6] = details: read-out: Reported Kd; SUR ligand; cited from earlier work
# SUR [7] = assay: Frontal affinity chromatography on MMAC-OT; assay type: binding, human; details: read-out: Kd on MMAC-OT (HEK-293); SUR ligand; open tubular column
# TSPO [8] = biological target: T1, TSPO; assay: Frontal affinity chromatography on MMAC-OT; assay type: binding
# [9] = biological target: mitochondrial permeability transition pore (mPTP); assay: Frontal affinity chromatography on MMAC-; assay type: binding, human; details: read-out: Kd on MMAC-(U87MG); mPTP ligand; ammonium acetate [10 mM, pH 7.4]
# mPTP = details: cited from earlier work
# Sequence of DIPY binding site of TSPO (P30536 whole entry): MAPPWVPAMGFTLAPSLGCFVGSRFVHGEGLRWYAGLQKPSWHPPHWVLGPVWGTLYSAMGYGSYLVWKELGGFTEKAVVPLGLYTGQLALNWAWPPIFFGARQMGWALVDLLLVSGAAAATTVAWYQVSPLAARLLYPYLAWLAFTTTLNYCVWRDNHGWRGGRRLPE
# Sequence of Translocator protein (TSPO) (P30536 whole entry): as above
# T1 sequence (P30536 whole entry): as above
compound,measurement,setting,value
"C=C(C)[C@H]1Cc2c(ccc3c2O[C@@H]2COc4cc(OC)c(OC)cc4[C@@H]2C3=O)O1 [Rot, rotenone]",Ki,[1],3400 ± 1270 nM
same,Ki,TSPO [2],20900 nM
"CN1C(=O)CN=C(c2ccccc2F)c2cc([N+](=O)[O-])ccc21 [Flu, flunitrazepam]",Kd,[3],290 ± 60 nM
same,Effect on retention of DIPY in single displacement study,TSPO [4]; 2.875 μM compound with 0.125 μM DIPY,increased the retention of DIPY
same,Increase of retention of 0.125 μM DIPY,"TSPO [4]; 2.875 μM compound, pH 5.9",~ 15%
same,Increase of breakthrough time of DIPY,"[1]; MMAC-(U87MG), concentrations greater than 0.5 μM",10-15%
same,Displacement of DIPY,"[1]; MMAC-(U87MG), concentrations lower than 0.5 μM",did not significantly displace DIPY
same,Ki,TSPO [2],211 nM
"COc1ccc(Cl)cc1C(=O)NCCc1ccc(S(=O)(=O)NC(=O)NC2CCCCC2)cc1 [Glibenclamide, glibenclamide]",Kd,[5],790 ± 390 nM
same,Kd,SUR [6],360 ± 50 nM
same,Kd,SUR [7],990 ± 520 nM
"CCC1=C(C)c2cc3[nH]c(cc4[nH]c(cc5nc(cc1n2)C(C)=C5CC)c(C)c4CCC(=O)O)c(CCC(=O)O)c3C [MIX, mesoporphyrin IX]",Ki,"[1]; read-out: Ki for DIPY binding site on MMAC(U87MG), 0.5 μM DIPY as marker, ammonium acetate [10 mM, pH 5.9]",1470 ± 120 nM
same,Ki,TSPO [2],650 nM
"OCCN(CCO)c1nc(N2CCCCC2)c2nc(N(CCO)CCO)nc(N3CCCCC3)c2n1 [DIPY, dipyridamole]",Breakthrough time,[3]; pH 5.9],100 min
same,Breakthrough time,[3]; pH 5.9] with 10% methanol,50 min
same,Breakthrough time,[3]; pH 7.4],200 min
same,Kd,TSPO [8],760 ± 250 nM
same,Ki,TSPO [2],680 nM and 679 nM
"O=C(O)Cc1ccccc1Nc1c(Cl)cccc1Cl [Diclofenac, diclofenac]",Kd,[9],1200 ± 190 nM
same,Reported Kd (mPTP induction),mPTP,"induces mPTP at low micromolar range [1, 37]"
"C=CC1=C(C)c2cc3[nH]c(cc4nc(cc5[nH]c(cc1n2)c(C)c5CCC(=O)O)C(CCC(=O)O)=C4C)c(C)c3C=C [PIX, protoporphyrin IX]",Ki,[1],3330 ± 1350 nM
same,Ki,TSPO [2],2920 nM

# Source: article PMC4512758 (Analytical biochemistry, 2015)
